Counter-ions that a name gives are not always drawn.
Molecular target: acetylcholinesterase (Homo sapiens, UniProt P22303)
Test: Cholinesterase Inhibition Assay (photometric method of Ellman et al.)
Format: biochemical
Conditions: not given

Sequence of acetylcholinesterase (P22303 32-614): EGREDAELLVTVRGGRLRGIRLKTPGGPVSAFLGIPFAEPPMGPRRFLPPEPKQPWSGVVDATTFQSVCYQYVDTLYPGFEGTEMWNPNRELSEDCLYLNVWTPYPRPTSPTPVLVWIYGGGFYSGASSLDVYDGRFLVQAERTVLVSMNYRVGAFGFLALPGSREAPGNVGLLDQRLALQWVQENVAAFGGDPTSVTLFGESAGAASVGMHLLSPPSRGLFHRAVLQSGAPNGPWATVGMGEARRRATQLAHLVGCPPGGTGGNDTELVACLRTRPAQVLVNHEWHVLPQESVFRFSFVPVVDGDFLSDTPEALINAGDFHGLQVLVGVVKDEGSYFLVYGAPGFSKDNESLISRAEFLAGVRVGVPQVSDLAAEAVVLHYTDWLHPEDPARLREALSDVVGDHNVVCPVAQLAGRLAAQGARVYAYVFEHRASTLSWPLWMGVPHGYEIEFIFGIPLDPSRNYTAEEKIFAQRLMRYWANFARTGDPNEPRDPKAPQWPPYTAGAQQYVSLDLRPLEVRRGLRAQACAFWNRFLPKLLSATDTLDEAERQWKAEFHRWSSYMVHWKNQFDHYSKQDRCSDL

SMILES | IC50
Nc1c2c(nc3ccccc13)CCCC2N1CCOCC1 (stereo not drawn) [1-(4-Morpholinyl)-1,2,3,4-tetrahydro-9-acridinamine] | > 1000 µM
CN1CCN(C2CCCc3nc4ccccc4c(N)c32)CC1 (stereo not drawn) [1-(4-Methyl-1-piperazinyl)-1,2,3,4-tetrahydro-9-acridinamine] | > 1000 µM
Nc1c2c(nc3ccccc13)CCCC2N1CCN(c2ccccc2)CC1 (stereo not drawn) [1-(4-Phenyl-1-piperazinyl)-1,2,3,4-tetrahydro-9-acridinamine, maleate] | > 1000 µM
Nc1c2c(nc3ccccc13)CCCC2N1CCCCC1 (stereo not drawn) [1-(1-Piperidinyl)-1,2,3,4-tetrahydro-9-acridinamine] | 8.4 µM
Nc1c2c(nc3ccccc13)CCCC2NCc1ccccc1 (stereo not drawn) [N1 -Benzyl-1,2,3,4-tetrahydro-1,9-acridinediamine] | 20 µM
CCCNC1CCCc2nc3ccccc3c(N)c21 (stereo not drawn) [N1 -Propyl-1,2,3,4-tetrahydro-1,9-acridinediamine] | 13 µM
CCNC1CCCc2nc3ccccc3c(N)c21 (stereo not drawn) [N1 -Ethyl-1,2,3,4-tetrahydrol, 9-acridinediamine, fumarate, hemi-hydrate] | 4.8 µM
Nc1c2c(nc3ccccc13)CCCC2N1CCCC1 (stereo not drawn) [1-(1-Pyrrolidinyl)-1,2,3,4-tetrahydro-9-acridinamine] | 18 µM
Nc1c2c(nc3ccccc13)CCCC2NCCc1ccccc1 (stereo not drawn) [N1-(2-Phenylethyl)-1,2,3,4-tetrahydro-1,9-acridinediamine] | 19 µM
COc1ccc(CNC2CCCc3nc4ccccc4c(N)c32)cc1OC (stereo not drawn) [N1-(3,4-Dimethoxybenzyl)-1,2,3,4-tetrahydro-1,9-acridinediamine] | 39 µM
CCCCNC1CCCc2nc3ccccc3c(N)c21 (stereo not drawn) [N1 -Butyl-1,2,3,4-tetrahydro-1,9-acridinediamine] | 49 µM
[N-]=[N+]=NC1CCCc2nc3ccccc3c(N)c21 (stereo not drawn) [1-Azido-1,2,3,4-tetrahydro-9-acridinamine, maleate] | 12 µM

Tested on: mice
Test: Dark Avoidance Assay (reversal of scopolamine induced memory deficit)
Format: in vivo
Conditions: 0.16 mg/kg body weight, retested 24 hours later
Method: This utility can also be ascertained by determining the ability of these compounds to restore cholinergically deficient memory in the Dark Avoidance Assay. In this assay mice are tested for their ability to remember an unpleasant stimulus for a period of 24 hours. A mouse is placed in a chamber that contains a dark compartment; a strong incadescent light drives it to the dark compartment, where an electric shock is administered through metal plates on the floor. The animal is removed from the testing apparatus and tested again, 24 hours later, for the ability to remember the electric shock.
If scopolamine, an anticholinergic that is known to cause memory impairment, is administered before an animal's initial exposure to the test chamber, the animal re-enters the dark compartment shortly after being placed in the test chamber 24 hours later. This effect of scopolamine is blocked by an active test compound, resulting in a greater interval before re-entry into the dark compartment.
The results for an active compound are expressed as the percent of a group of animals in which the effect of scopolamine is blocked, as manifested by an increased interval between being placed in the test chamber and re-entering the dark compartment.

SMILES | % of animals with scopolamine induced memory deficit reversal
Nc1c2c(nc3ccccc13)CCCC2N1CCCCC1 (stereo not drawn) [1-(1-Piperidinyl)-1,2,3,4-tetrahydro-9-acridinamine] | 13%

Same assay, conditions: 0.31 mg/kg body weight, retested 24 hours later

SMILES | % of animals with scopolamine induced memory deficit reversal
CCCNC1CCCc2nc3ccccc3c(N)c21 (stereo not drawn) [N1 -Propyl-1,2,3,4-tetrahydro-1,9-acridinediamine] | 20%
CNC(=O)Oc1ccc2c(c1)[C@]1(C)CCN(C)[C@@H]1N2C [Physostigmine, reference compound] | 20%

Reference: patent US4868177A, “1,2,3,4-tetrahydro-1,9-acridinediamines, pharmaceutical compositions and use” (priority 1988, dated 1989)
